From patent publication US5126336A, “Antibiotic C-3 catechol-substituted cephalosporin compounds, compositions and method of use thereof” (Bristol-Myers Squibb Company, priority 1990, dated 1992)
≈ marks a conversion by molar mass, not a printed value.

Assays:
[1] = tested on: Gn-Ib: Cephalothin(CET)-resistant E. coli (3) and Kl. pneumoniae (2); assay: MIC, two-fold serial agar dilution, Gn-Ib; format: cell-based; conditions: Escherichia coli, read-out: Geometric mean of MIC, Gn-Ib, 5 strains; Mueller-Hinton agar
Description: (§1) Minimum inhibitory concentrations (MICs) of the present series of cephalosporins were determined against 32 strains of test organisms by two-fold serial agar dilution method in Mueller-Hinton agar. Geometric means of MICs were calculated against six groups of the test organisms which are classified as follows and summarized in Table 1.
Gn-Ib Cephalothin(CET)-resistant E. coli (3) and Kl.

[2] = tested on: S. aureus Smith; assay: MIC, agar dilution; format: cell-based; conditions: Staphylococcus aureus, 18 h; S. aureus Smith (Table 3); read-out: MIC
Description: as §1
(§2) In vivo antibacterial activity was determined against three bacterial infections (S. aureus Smith, E. coli Juhl and P. aeruginosa A9843A) by intramuscular administration to mice just after the bacterial challenge. PD50 values are summarized in Table 3 in comparsion with the MIC values against the corresponding organisms.
(§3) Medium; MuellerHinton agar (pH = 7.2)
(§4) Incubation temperature: 32° C., 18 hr
(§5) Inoculum size; 10^6 cells/ml

[3] = tested on: P. aeruginosa A9843A; assay: MIC, agar dilution; format: cell-based; conditions: Pseudomonas aeruginosa, A9843A, 18 h
Description: as §1, §2, §3, §4, §5

[4] = tested on: E. coli Juhl A15119; assay: MIC, agar dilution; format: cell-based; conditions: Escherichia coli, JUHLA15119, 18 h; E. coli Juhl (Table 3); read-out: MIC
Description: as §1, §2, §3, §4, §5

[5] = tested on: S. aureus Smith; assay: In vivo antibacterial activity, S. aureus Smith infection; conditions: Staphylococcus aureus, mice, im just after bacterial challenge, read-out: PD50
Description: as §2

[6] = tested on: Gp-Ib: Penicillin(PC)-resistant S. aureus (5); assay: MIC, two-fold serial agar dilution, Gp-Ib; format: cell-based; conditions: Staphylococcus aureus, 5 strains, Mueller-Hinton agar, read-out: Geometric mean of MIC
Description: as §1
Gp-Ib Penicillin(PC)-resistant S. aureus (5).

[7] = tested on: Gn-II: M.morganii (1), Ent. cloacae (2) and Ser. marcescens (2); assay: MIC, two-fold serial agar dilution, Gn-II; format: cell-based; conditions: Gn-II, 5 strains; Mueller-Hinton agar; read-out: Geometric mean of MIC
Description: as §1
Gn-II M.morganii (1), Ent. cloacae (2) and Ser.

[8] = tested on: Gn-Ia: Cephalothin(CET)-sensitive E. coli (2), Kl. pneumoniae (1) and Pr. mirabilis (2); assay: MIC, two-fold serial agar dilution, Gn-Ia; format: cell-based; conditions: 5 strains, Mueller-Hinton agar, read-out: Geometric mean of MIC
Description: as §1
Gn-Ia Cephalothin(CET)-sensitive E. coli (2), Kl.
pneumoniae (1) and Pr. mirabilis (2).

[9] = tested on: E. coli Juhl; assay: In vivo antibacterial activity, E. coli Juhl infection; conditions: Escherichia coli, mice, im just after bacterial challenge, read-out: PD50
Description: as §2

[10] = tested on: Gn-III: Ps. aeruginosa (7); assay: MIC, two-fold serial agar dilution, Gn-III; format: cell-based; conditions: Pseudomonas aeruginosa, Gn-III, 7 strains; Mueller-Hinton agar; read-out: Geometric mean of MIC
Description: as §1
Gn-III Ps. aeruginosa (7).

[11] = tested on: Gp-Ia: Penicillin(PC)-sensitive S. aureus (5 strains); assay: MIC, two-fold serial agar dilution, Gp-Ia; format: cell-based; conditions: Staphylococcus aureus, Mueller-Hinton agar, read-out: Geometric mean of MIC
Description: as §1
Gp-Ia Penicillin(PC)-sensitive S. aureus (5 strains).

[12] = tested on: P. aeruginosa A9843A; assay: In vivo antibacterial activity, P. aeruginosa A9843A infection; parameters: species or system mice; conditions: Pseudomonas aeruginosa, A9843A, in Mus musculus, im, read-out: PD50
Description: as §2

## CO/N=C(\C(=O)NC1C(=O)N2C(C(=O)[O-])=C(/C=C\C[N+]3(C)Cc4cc(O)c(O)cc4C3)CS[C@H]12)c1csc(N)n1 (stereo partly drawn) [Compound Ie, 7-[(Z)-2-(2-amino-thiazol-4-yl)-2-methoxyiminoacetamido]-3-[(Z)-3-(5,6-dihydroxy-2-methyl-2-isoindolinio)-1-propen-1-yl]-3-cephem-4-carboxylate]
[1]
  MIC: 0.26 µg/mL (≈ 0.443 µM)
[2]
  MIC: 6.3 µg/mL (≈ 10.7 µM)
[3]
  MIC: 3.1 µg/mL (≈ 5.28 µM)
[4]
  MIC: 0.2 µg/mL (≈ 0.341 µM)
[5]
  ED50: 0.72 mg/kg
[6]
  MIC: 6.3 µg/mL (≈ 10.7 µM)
[7]
  MIC: 0.91 µg/mL (≈ 1.55 µM)
[8]
  MIC: 0.13 µg/mL (≈ 0.222 µM)
[9]
  ED50: 0.025 mg/kg
[10]
  MIC: 2.9 µg/mL (≈ 4.94 µM)
[11]
  MIC: 4.7 µg/mL (≈ 8.01 µM)
[12]
  ED50: 9.9 mg/kg
